Results taken from ChEMBL document CHEMBL5604061, “ASAP - WNV NS2B-NS3 protease fluorescence dose response” (2024).
“And” between values parts separate entries of the source, which are not always exact repeats. Equal values may be shown once.

The molecules below were run against T1, NS3 (West Nile virus, UniProt K4FQI5) (assay: Functional biochemical assay to identify treatments for viral infectious disease that targets West Nile NS2B-NS3 protease. Utilizing a direct enzyme activity measurement method, reading the fluorescence intensity is used to characterize the relative potency of inhibitors as IC50.).
T1 sequence (K4FQI5 whole entry): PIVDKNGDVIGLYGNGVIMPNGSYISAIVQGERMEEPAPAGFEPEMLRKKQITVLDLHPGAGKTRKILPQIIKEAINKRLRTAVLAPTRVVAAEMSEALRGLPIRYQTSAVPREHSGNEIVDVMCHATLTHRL
Design: species or system NY-99

| Structure (SMILES) | IC50 |
| --- | --- |
| CCOCCNC(=O)[C@H](Nc1ccc2c(c1)CNC2)c1cc(Cl)cc2[nH]ncc12 | 0.465 µM |
| O=C1Cc2c(cc(F)cc2C(=O)Nc2ccc3c(c2)CNC3)N1 | 0.537 µM and 0.576 µM |
| CCNC(=O)Nc1cc(Cl)cc(C(=O)Nc2ccc3c(c2)CNCCO3)c1 | 15.5 µM |
| NS(=O)(=O)c1ccc(C2CCN(Cc3c[nH]c4ccccc34)CC2)cc1 | > 99.5 µM |
| Cc1cc(-c2cc(F)cc(C(=O)Nc3ccc4c(c3)CNC4)c2)[nH]n1 | 3.74 µM |
| CNC(=O)c1cc(Cl)c(F)cc1NS(=O)(=O)c1ccc(Oc2ccccc2Cl)cc1 | 30.6 µM |
| CCNC(=O)Nc1cc(Cl)cc(C(=O)Nc2cccc(CN)c2)c1 | 21.6 µM |
| O=C(Nc1ccc2c(c1)CNC2)c1cc(Cl)cc(-n2cccc2)c1 | 12.9 µM |
| O=C(Nc1ccc2c(c1)CNC2)c1cc(Br)cc2[nH]c(C3CCOCC3)nc12 | > 99.5 µM |
| C=C[C@H]1NCc2cc(NC(=O)c3cc(F)cc4[nH]ncc34)ccc21 | 3.07 µM |
| O=C(NCC(F)F)[C@H](Nc1ccc2c(c1)CNC2)c1cc(Br)cc2[nH]ccc12 | 0.556 µM |
| Cc1c(C(=O)Nc2cc(CCCN)ccn2)cc(C2CC2)n1C | 58.6 µM |
| N=C(N)NCc1ccc(NC(=O)Oc2ccccc2)cc1 | > 100 µM |
| NCc1cccc(NC(=O)c2cc(Br)cc3[nH]ccc23)c1 | > 99.5 µM |
| NCCc1cccc(NC(=O)c2cc(Cl)cc(NC(=O)OCc3ccccc3)c2)c1 | 23.6 µM |
| CC(C)CNC(=O)c1cc(Cl)c(F)cc1NS(=O)(=O)c1ccc(Oc2ccccc2Cl)cc1 | 24.9 µM |
| CNC(=O)c1cccc(C(=O)Nc2ccc3c(c2)CNC3)c1 | 36.8 µM |
| O=C(Nc1ccc2c(c1)CNC2)c1cccc2[nH]c(C(F)(F)F)cc12 | 2.51 µM |
| O=C(Nc1ccc2c(c1)CNC2)c1cc(Cl)cc2[nH]c(-c3nc4c(s3)CCC4)nc12 | 40.3 µM |
| CCc1cccc(-c2nc3c(C(=O)Nc4ccc5c(c4)CNC5)cc(F)cc3[nH]2)c1 | 18.9 µM |
| O=C1Cc2c(cccc2C(=O)Nc2ccc3c(c2)CNCCC3)N1 | 2.15 µM |
| CC(C)CNC(=O)c1cc(Cl)ccc1NS(=O)(=O)c1ccc(Oc2ccccc2Cl)cc1 | > 99.5 µM |
| CC(C)n1cc2c(C(=O)Nc3ccc4c(c3)CNC4)cc(Cl)cc2n1 | 1.73 µM |
| CCc1ccc(-c2nc3c(C(=O)Nc4ccc5c(c4)CNC5)cc(Cl)cc3[nH]2)cc1 | 32 µM |
| N#Cc1cccc(-c2nc3c(C(=O)Nc4ccc5c(c4)CNC5)cc(F)cc3[nH]2)c1 | 3.76 µM |
| CCn1c(=O)c(N2CC[C@@H](CO)C2)nc2ccccc21 | > 99.5 µM |

| Structure (SMILES) | IC50 |
| --- | --- |
| CC(C)c1nc2c(C(=O)Nc3ccc4c(c3)CNC4)cc(Br)cc2[nH]1 | > 99.5 µM |
| O=C(Nc1ccc2c(c1)CNC2)c1cc(Cl)cc(C(F)(F)F)n1 | 40.1 µM |
| O=C(NCC(F)F)[C@H](Nc1ccc2c(c1)CNC2)c1cc(Cl)cc(Cl)c1Cl | 0.936 µM |
| Cc1cc(CN)cc(NC(=O)c2cc(Cl)cc3[nH]ncc23)c1 | 22.6 µM |
| C=CC[C@H]1NCc2cc(NC(=O)c3cc(F)cc4[nH]ncc34)ccc21 | 4.14 µM |
| Cn1c(=O)[nH]c2c(C(=O)Nc3ccc4c(c3)CNC4)cc(Br)cc21 | 14.4 µM |
| O=C(NCCOCC1CC1)[C@H](Nc1ccc2c(c1)CNC2)c1cc(Cl)cc(C2CC2)c1 | 0.366 µM |
| O=C(Nc1ccc2c(c1)CNC2)c1cc(Cl)cc(C2CC2)c1 | 25.5 µM |
| CN(C)c1nc(-c2cc(F)cc(C(=O)Nc3ccc4c(c3)CNC4)c2)cs1 | 12.6 µM |
| CC(C)NC(=O)[C@H](Nc1ccc2c(c1)CNC2)c1cc(Cl)cc2[nH]ncc12 | 0.386 µM and 0.292 µM and 0.336 µM |
| N=C(N)NCCc1ccccc1B(O)O | > 100 µM |
| O=C(Nc1ccc2c(c1)CNC2)c1cncc2[nH]ncc12 | 20.8 µM |
| O=C(Nc1ccc2c(c1)CNC2)c1cc(Br)cc2c1OCO2 | > 99.5 µM |
| c1ccc2sc(C3CCN(Cc4c[nH]c5ccccc45)CC3)nc2c1 | > 99.5 µM |
| C[C@@H](Oc1ccc(S(=O)(=O)Nc2ccc(Cl)cc2C(=O)O)cc1)c1ccccc1F | 20.1 µM |
| O=C(Nc1ccc2c(c1)CCNCC2)c1cc(Cl)cc2[nH]ncc12 | 48.5 µM |
| NCc1cccc(NC(=O)c2cc(Cl)cc3[nH]ncc23)c1 | 35.8 µM |
| CCCn1cc2c(C(=O)Nc3ccc4c(c3)CNC4)cc(Cl)cc2n1 | 1.97 µM |
| NCCc1ccc([C@H]2C[C@@H]2c2cc(Cl)cc(NC(=O)OCc3ccccc3)c2)cc1 | 7.12 µM |
| O=C(O)c1cc(Oc2ccc(F)cc2)c(F)cc1NS(=O)(=O)c1ccc(Oc2ccccc2Cl)cc1 | 3.39 µM |
| Cc1[nH]c2ccccc2c1CN1CCC(c2nc3ccccc3s2)CC1 | > 99.5 µM |
| CN1C(=O)CC[C@H]1c1nc2c(C(=O)Nc3ccc4c(c3)CNC4)cc(F)cc2[nH]1 | 14.1 µM |
| O=C(Nc1ccccc1)Oc1ccccc1 [PHENYL PHENYLCARBAMATE] | > 100 µM |
| CO[C@H](C)Cn1cc2c(C(=O)Nc3ccc4c(c3)CNC4)cc(Cl)cc2n1 | 19.8 µM |
| O=C(Nc1ccc2c(c1)CNC2)c1cc(Cl)cc(N2CCCC2=O)c1 | 24.8 µM |
| O=C(Nc1ccc2c(c1)CNC2)c1cc(Cl)cc2[nH]c(-c3ncnn3C3CC3)nc12 | 87.2 µM |

| Structure (SMILES) | IC50 |
| --- | --- |
| COc1cc(-c2cc(NC(=O)c3cc(F)cc4[nH]ncc34)cc3c2CNC3)ccn1 | 0.801 µM |
| N[C@H]1CCc2cc(NC(=O)c3cc(Cl)cc(NC(=O)OCc4ccccc4)c3)ccc21 | 45.1 µM |
| N#CCCNC(=O)[C@H](Nc1ccc2c(c1)CNC2)c1cc(Cl)cc(C2CC2)c1 | 0.43 µM |
| N#Cc1cc2c(cc1NC(=O)c1cc(F)cc3[nH]ncc13)CNC2 | 0.242 µM |
| CC(=O)Nc1cc(Br)cc(C(=O)Nc2ccc3c(c2)CNC3)c1 | 31.5 µM |
| O=C(Nc1ccc2c(c1)CNC2)c1cc(Cl)cc2[nH]ncc12 | 3.09 µM |
| O=C(Nc1cc2c(cc1C1CC1)CNC2)c1cc(F)cc2[nH]ncc12 | 0.832 µM |
| O=C1Cc2cc(C(=O)Nc3ccc4c(c3)CNC4)ccc2N1 | 16.7 µM |
| CNC(=O)[C@H](Nc1cccc(CN)c1)c1cc(Cl)cc(NC(=O)OCc2ccccc2)c1 | 1.88 µM |
| CNC(=O)[C@H](Nc1ccc2c(c1)CNC2)c1cc(Cl)cc(C2CC2)c1 | 0.447 µM |
| NCc1cccc(NC(=O)C[C@H](NC(=O)OCc2ccccc2)c2ccc(OCc3ccccc3)c(Br)c2)c1 | 8.65 µM |
| CCCCCC(=O)N[C@H](C(=O)NCc1cccc(CN)c1)c1ccc(OCc2ccccc2)cc1 | 72.3 µM |
| O=C1CCc2c(cccc2C(=O)Nc2ccc3c(c2)CNC3)N1 | 10.8 µM |
| O=C(Nc1ccccc1)OCc1ccccc1 [BENZYL PHENYLCARBAMATE] | > 100 µM |
| O=C(NC[C@H]1CCCO1)[C@H](Nc1ccc2c(c1)CNC2)c1cc(Cl)cc(C2CC2)c1 | 0.498 µM |
| O=C(Nc1ccc2c(c1)CNC2)c1cc(Br)cc2[nH]c(-c3ccccc3)nc12 | 11.4 µM |
| N=C(N)NCCc1cccc(B(O)O)c1 | > 100 µM |
| O=C(NCC(F)F)[C@H](Nc1ccc2c(c1)CNC2)c1cc(F)cc2[nH]ncc12 | 0.247 µM |
| COc1ccc(S(=O)(=O)n2nc(OC(=O)c3cccc(-c4ccccc4Cl)c3)cc2N)cc1 | 1.09 µM |
| O=C(Nc1ccc2c(c1)CNC2)c1cc(F)cc(-c2cnc(C3CC3)s2)c1 | 1.99 µM |
| O=C(Nc1ccc2c(c1)CNC2)c1cc(Br)cc2[nH]c([C@H]3CCCO3)nc12 | > 99.5 µM |
| O=C(Nc1ccc2c(c1)CNC2)c1cc(Cl)cc2[nH]c(CCc3cccnc3)nc12 | 87.1 µM |
| Cc1cccc(-c2nc3c(C(=O)Nc4ccc5c(c4)CNC5)cc(F)cc3[nH]2)c1 | 26 µM |
| N[C@H]1Cc2ccc(NC(=O)c3cc(Cl)cc(NC(=O)OCc4ccccc4)c3)cc2C1 | 35.9 µM |
| CCCn1ncc2c(C(=O)Nc3ccc4c(c3)CNC4)cc(Cl)cc21 | 12.5 µM |
| Cc1cccc(-c2nc3c(C(=O)Nc4ccc5c(c4)CNC5)cc(Cl)cc3[nH]2)c1O | 17.4 µM |

| Structure (SMILES) | IC50 |
| --- | --- |
| CCCCNC(=O)[C@H](Nc1ccc2c(c1)CNC2)c1cc(Cl)cc(C2CC2)c1 | 0.295 µM |
| O=C(Nc1ccc2c(c1)CNC2)c1cccc2c1[C@]1(CCNC1)C(=O)N2 | 1.62 µM |
| O=C(Nc1cc2c(c(-c3c[nH]c(=O)c(F)c3)c1)CNC2)c1cc(F)cc2[nH]ncc12 | 0.668 µM |
| CCOCC1(c2nc3c(C(=O)Nc4ccc5c(c4)CNC5)cc(F)cc3[nH]2)CC1 | 9.95 µM |
| CS(=O)(=O)N1CC[C@]2(C1)C(=O)Nc1cccc(C(=O)Nc3ccc4c(c3)CNC4)c12 | 6.28 µM |
| Cn1cc2cc(Cl)cc(C(=O)Nc3ccc4c(c3)CNC4)c2n1 | > 24.9 µM |
| CNC(=O)[C@H](Nc1ccc2c(c1)CNC2)c1cc(Cl)cc2c1OCC2 | 3.8 µM |
| O=C(O)c1cc2c(cc1NS(=O)(=O)c1ccc(Oc3ccccc3Cl)cc1)CCC2 | 16.4 µM |
| CCOC(=O)[C@H](Nc1ccc2c(c1)CNC2)c1cc(Cl)cc(C2CC2)c1 | 0.845 µM |
| NCc1cccc(NC(=O)[C@H]2[C@H]3CCCCC[C@H]3[C@H]2NC(=O)OCc2ccccc2)c1 | 47.1 µM |
| NCc1cccc(NC(=O)c2cc(Cl)cc(-n3cccc3)c2)c1 | > 99.5 µM |
| O=C(Nc1ccc2c(c1)CNCCC2)c1cc(Cl)cc2[nH]ncc12 | 3.25 µM |
| O=C(NCC(F)F)[C@H](Nc1ccc2c(c1)CNC2)c1cc(F)cc2[nH]ccc12 | 0.768 µM |
| COc1cc(C#N)cc([C@H](Nc2ccc3c(c2)CNC3)C(=O)NCC(F)F)c1 | 0.243 µM |
| O=C(Nc1ccc2c(c1)CNC2)c1cc(Cl)cc2nn(C3COC3)cc12 | 42.5 µM |
| O=C(Nc1ccc2c(c1)CNC2)c1cc(Cl)cc2ccncc12 | 9.68 µM |
| COCn1ncc2c(C(=O)Nc3ccc4c(c3)CNC4)cc(Cl)cc21 | 3.73 µM |
| CC(C)CNC(=O)[C@H](Nc1ccc2c(c1)CNC2)c1cc(Cl)cc2[nH]ncc12 | 0.643 µM |
| O=C(NCc1cccnc1)[C@H](Nc1ccc2c(c1)CNC2)c1cc(Cl)cc2[nH]ncc12 | 1.37 µM |
| NCc1ccc(-c2ncc(OCC3CCNCC3)nc2-c2ccc(C3CCOCC3)cc2)cc1 | > 99.5 µM |
| CCc1cnccc1-c1nc2c(C(=O)Nc3ccc4c(c3)CNC4)cc(Cl)cc2[nH]1 | > 99.5 µM |
| N=C(N)NCc1ccc(OC(=O)Nc2ccccc2)cc1 | > 100 µM |
| CC(C)n1ncc2c(C(=O)Nc3ccc4c(c3)CNC4)cc(Cl)cc21 | 18.2 µM |
| Cc1cnccc1-c1cc(NC(=O)c2cc(F)cc3[nH]ncc23)cc2c1CNC2 | 2.77 µM |
